Source: US7662842B2, “Thiazolidinone amides, thiazolidine carboxylic acid amides, and serine amides, including polyamine conjugates thereof, as selective anti-cancer agents” (Ohio State Univesity Research Foundation, priority 2003, dated 2010)

Experiments:
[1] = test system: human dermal fibroblasts; assay: Sulforhodamine B assay, fibroblast control cells; type: cell-based; details: Homo sapiens, Fibroblast, 48 h, SRB assay, 48 h incubation
[2] = test system: LNCaP cells; assay: DNA fragmentation by agarose gel electrophoresis; type: cell-based, human; details: treatment for 24 to […], 3-50 μM, FIGS. 4A-B
Method: In FIG. 4B, the dose and exposure time are indicated for compound 5 as follows: lane 1, 100 bp DNA marker; lane 2, 5 μM for 24 h; lane 3, 5 μM for 48 h; lane 4, 5 μM for 72 h; lane 5, 5 μM for 96 h; lane 6, 3 μM for 96 h; lane 7, 8 μM for 48 h; and lane 8, 8 μM for 72 h.

[3] = test system: effector capsase-3; assay: Activation of effector caspase-3; type: cell-based
[4] = test system: SKMEL-188 cells; assay: Lactate dehydrogenase release assay; type: cell-based; details: SKMEL-188, 48 hours, FIG. 11A
Method: SKMEL-188 melanoma cells were incubated with Compound 4(R) at 60 μM for 48 hours. FIG. 11A is a graph showing the cytotoxicity as measured by LDH release from the cells following treatment. Data is presented as mean±SEM (n=8), *p<0.05, **p<0.005. FIG. 11B is a pair of graphs that show the DNA content, as measured by flow cytometry, of cells that were exposed to control (left) and Compound 4(R) (right).
Lactate Dehydrogenase Release Assay: SKMEL-188 cells were seeded at a density of 5000 cells per well in a 96-well flat-bottom microtiter plate. Media were changed after 12 hours and the testing compound was added at serial dilutions. Media were changed with fresh compound every 24 hours. […] Lactate dehydrogenase (LDH) in supernatants was measured using Cytotox 96 Non-Radioactive Cytotoxicity Assay (Promega, Madison, Wis.). […] At the end of incubation stop solution was added to each well and plate was read at 490 nm. Cytotoxicity of compounds was calculated using the following formula: percent cytotoxicity=experimental LDH release/maximum LDH release Experimental LDH release was calculated by subtraction of absorbance corresponding to media only from absorbance corresponding to control/compound treated cells. Maximum LDH release was calculated by subtraction of absorbance corresponding to media with added lysis solution from absorbance corresponding to cells lysed with lysis solution. […]

[5] = test system: WM-164 cells; assay: Sulforhodamine B assay in melanoma cells, WM-164; type: cell-based; details: Homo sapiens, WM164, read-out: IC50 WM-164; SRB assay, 48 h incubation; melanoma cell line
[6] = test system: SKMEL-188 melanoma cells; assay: Sulforhodamine B assay in melanoma cells, SKMEL-188; type: cell-based; details: SK-MEL-188, 48 h, SRB assay, 48 h incubation; melanoma cell line

Activation of effector caspase-3 [3]: no increase in activity
IC50 [5]: 460 nM
IC50 [6]: 570 nM
Compound: CCCCCCCCCCCCCCNC(=O)[C@@H]1CSC(c2ccccc2)N1.Cl (mixture of isomers) [Compound 4, (2RS, 4R)-2-Phenylthiazolidine-4-carboxylic acid tetradecylamide Hydrochloride]
IC50 [1]: 6.1 µM
DNA fragmentation (apoptosis) in LNCaP cells [2]: induce cell apoptosis
LDH released to cellular environment [4]: dramatic does-dependent increase of LDH released
